This passage reports IC50 results from BindingDB's records for doi:10.1021/jm00034a008 (Ciba-Geigy, 1994).

Molecules are shown by their SMILES.

Experiment [1] addresses Purine nucleoside phosphorylase (Bos taurus) (UniProt P55859). Put plainly: Inhibition of calf spleen PNP (purine nucleoside phosphorylase) in 1 mM phosphate.
Experiment [2] has the same target. Put plainly: Inhibition of calf spleen PNP (purine nucleoside phosphorylase) in 50 mM phosphate.

Purine nucleoside phosphorylase (Bos taurus), sequence (P55859 whole entry, looked up): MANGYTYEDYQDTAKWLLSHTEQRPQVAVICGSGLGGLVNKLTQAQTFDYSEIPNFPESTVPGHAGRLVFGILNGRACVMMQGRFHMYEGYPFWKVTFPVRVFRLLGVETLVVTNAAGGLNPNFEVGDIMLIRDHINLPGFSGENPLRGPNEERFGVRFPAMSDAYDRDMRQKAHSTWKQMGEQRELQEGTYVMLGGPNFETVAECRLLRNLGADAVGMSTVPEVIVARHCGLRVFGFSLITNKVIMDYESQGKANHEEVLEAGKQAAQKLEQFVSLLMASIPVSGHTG

With `CC(C)(CCS)CCn1cnc2c(=S)[nH]c(N)nc21` [2-Amino-9-(5-mercapto-3,3-dimethyl-pentyl)-1,9-dihydro-purine-6-thione], the results for the IC50 in experiment [1] and in experiment [2] were 50 µM and 95 µM, respectively.
In the same order, the values of `CC(C)(CCn1cnc2c(=O)[nH]c(N)nc21)CCS(N)(=O)=O` [5-(2-Amino-6-oxo-1,6-dihydro-purin-9-yl)-3,3-dimethyl-pentane-1-sulfonic acid amide] are 100 µM and above 300 µM.
In the same order, the values of `CC(C)(CCn1cnc2c(=O)[nH]c(N)nc21)CCS(=O)(=O)O` [5-(2-Amino-6-oxo-1,6-dihydro-purin-9-yl)-3,3-dimethyl-pentane-1-sulfonic acid] are 0.18 µM and 9 µM.
As to `CC(C)(CCC#N)CCn1cnc2c(=O)[nH]c(N)nc21` [6-(2-Amino-6-oxo-1,6-dihydro-purin-9-yl)-4,4-dimethyl-hexanenitrile], the values for the IC50 in experiment [1] and in experiment [2] were 260 µM and above 300 µM, respectively.
In the same order, the values of `CC(C)(CCC(N)=O)CCn1cnc2c(=O)[nH]c(N)nc21` [6-(2-Amino-6-oxo-1,6-dihydro-purin-9-yl)-4,4-dimethyl-hexanoic acid amide] are 200 µM and above 300 µM.
In the same order, the values of `CC(C)(CCC(=O)O)CCn1cnc2c(=O)[nH]c(N)nc21` [6-(2-Amino-6-oxo-1,6-dihydro-purin-9-yl)-4,4-dimethyl-hexanoic acid] are 8 µM and 290 µM.
In the same order, the values of `CC(C)(CCn1cnc2c(=O)[nH]c(N)nc21)CCP(=O)(O)O` [[5-(2-Amino-6-oxo-1,6-dihydro-purin-9-yl)-3,3-dimethyl-pentyl]-phosphonic acid] are 0.044 µM and 2 µM.
